Data as given in ChEMBL document CHEMBL6153037, “Developing dual-responsive quinolinium prodrugs of 8-hydroxyquinoline by harnessing the dual chelating sites” (Eur J Med Chem, 2025).
Activity calls are given as the source filed them. The rule behind the calls is not given here.

Key:
MDA-MB-231 [1] = assay: Induction of apoptosis in human MDA-MB-231 cells assessed as late apoptotic cells at 1.2 uM incubated for 24 hrs by Annexin V-FITC/PI staining based flow cytometry (reference value: 5.81 %); assay type: functional
[2] = Prodrug conversion in solution containing ONOO- assessed as 8-HQ release; assay type: ADME
MDA-MB-231 [3] = assay: Induction of apoptosis in human MDA-MB-231 cells assessed as early apoptotic cells at 1.2 uM incubated for 24 hrs by Annexin V-FITC/PI staining based flow cytometry (reference value: 7.39 %); assay type: functional
MDA-MB-231 [4] = assay: Inhibition of mitochondrial membrane potential in human MDA-MB-231 cells assessed as increase in intracellular calcium level at 0.4 to 0.8 uM incubated for 24 hrs by Fluo-4 AM dye based analysis; assay type: functional, cell-based; conditions: dose 0.4-0.8 µM
MCF-10A [5] = assay: Inhibition of mitochondrial membrane potential in human MCF-10A cells assessed as decrease in ATP level at 0.4 to 0.8 uM incubated for 24 hrs by luminescence based analysis; assay type: toxicity, cell-based; conditions: dose 0.4-0.8 µM
MDA-MB-231 [6] = assay: Induction of apoptosis in human MDA-MB-231 cells assessed as viable cells at 0.8 uM incubated for 24 hrs by Annexin V-FITC/PI staining based flow cytometry (reference value: 86.2 %); assay type: functional; conditions: read-out: Activity
MCF-10A [7] = assay: Induction of apoptosis in human MCF-10A cells assessed as early apoptotic cells at 0.4 uM incubated for 24 hrs by Annexin V-FITC/PI staining based flow cytometry (reference value: 2.96 %); assay type: toxicity, cell-based
MDA-MB-231 [8] = assay: Anti-migration activity in human MDA-MB-231 cells at 0.8 uM incubated for 48 hrs by wound healing assay (reference value: 65.2 %); assay type: functional
[9] = Induction of apoptosis in human MCF-10A cells assessed as viable cells at 0.8 uM incubated for 24 hrs by Annexin V-FITC/PI staining based flow cytometry (reference value: 92.5 %); assay type: toxicity, cell-based; conditions: read-out: Activity
MCF-10A [10] = assay: Induction of apoptosis in human MCF-10A cells assessed as early apoptotic cells at 1.2 uM incubated for 24 hrs by Annexin V-FITC/PI staining based flow cytometry (reference value: 2.96 %); assay type: toxicity, cell-based
MCF-10A [11] = assay: Induction of apoptosis in human MCF-10A cells assessed as necrotic cells at 0.8 uM incubated for 24 hrs by Annexin V-FITC/PI staining based flow cytometry (reference value: 1.38 %); assay type: toxicity, cell-based
MDA-MB-231 [12] = assay: Induction of cell cycle arrest in human MDA-MB-231 cells assessed as accumulation at G0/G1 phase at 0.4 uM by PI staining based flow cytometry (reference value: 64.6 %); assay type: functional
MDA-MB-231 [13] = assay: Anti-migration activity in human MDA-MB-231 cells at 0.4 uM incubated for 24 hrs by wound healing assay (reference value: 45.4 %); assay type: functional
MDA-MB-231 [14] = assay: Induction of apoptosis in human MDA-MB-231 cells assessed as late apoptotic cells at 0.4 uM incubated for 24 hrs by Annexin V-FITC/PI staining based flow cytometry (reference value: 5.81 %); assay type: functional
MDA-MB-231 [15] = assay: Induction of apoptosis in human MDA-MB-231 cells assessed as late apoptotic cells at 0.8 uM incubated for 24 hrs by Annexin V-FITC/PI staining based flow cytometry (reference value: 5.81 %); assay type: functional
MDA-MB-231 [16] = assay: Induction of apoptosis in human MDA-MB-231 cells assessed as early apoptotic cells at 0.4 uM incubated for 24 hrs by Annexin V-FITC/PI staining based flow cytometry (reference value: 7.39 %); assay type: functional
MCF-10A [17] = assay: Inhibition of mitochondrial membrane potential in human MCF-10A cells assessed as increase in intracellular calcium level at 0.4 to 0.8 uM incubated for 24 hrs by Fluo-4 AM dye based analysis; assay type: toxicity, cell-based; conditions: dose 0.4-0.8 µM
MCF-10A [18] = assay: Induction of apoptosis in human MCF-10A cells assessed as early apoptotic cells at 0.8 uM incubated for 24 hrs by Annexin V-FITC/PI staining based flow cytometry (reference value: 2.96 %); assay type: toxicity, cell-based
OVCAR-3 = assay: Cytotoxicity against CuCl2-treated human OVCAR-3 cells assessed as inhibition of cell viability incubated for 48 hrs by MTT assay; assay type: functional, cell-based; conditions: OVCAR-3, 48 h
MCF-10A [19] = assay: Induction of apoptosis in human MCF-10A cells assessed as late apoptotic cells at 0.8 uM incubated for 24 hrs by Annexin V-FITC/PI staining based flow cytometry (reference value: 3.13 %); assay type: toxicity, cell-based
MDA-MB-231 [20] = assay: Antitumor activity against human MDA-MB-231 cells assessed as sphere-forming efficiency incubated for 6 hrs followed by medium replacement without compound measured after 6 days by microscopic analysis (reference value: 1.07 %); assay type: functional
MCF-10A [21] = assay: Induction of apoptosis in human MCF-10A cells assessed as late apoptotic cells at 1.2 uM incubated for 24 hrs by Annexin V-FITC/PI staining based flow cytometry (reference value: 3.13 %); assay type: toxicity, cell-based
[22] = Prodrug conversion in solution containing Cu(II) assessed as 8-HQ-Cu(II) complex formation at 50 uM measured upto 30 mins by UV-Vis spectrophotometry; assay type: ADME; conditions: 0.5 h
MDA-MB-231 [23] = assay: Induction of apoptosis in human MDA-MB-231 cells assessed as necrotic cells at 1.2 uM incubated for 24 hrs by Annexin V-FITC/PI staining based flow cytometry (reference value: 0.59 %); assay type: functional
MDA-MB-231 [24] = assay: Anti-migration activity in human MDA-MB-231 cells at 0.8 uM incubated for 24 hrs by wound healing assay (reference value: 45.4 %); assay type: functional
[25] = Stability of compound in PBS at pH 7.4 containing H2O2 assessed as compound remaining at 50 uM measured after 30 mins by HPLC analysis; assay type: physicochemical; conditions: buffer, pH 7.4, 0.5 h
[26] = Prodrug conversion in PBS at pH 7.4 containing H2O2 assessed as 8-HQ release by measuring retention time at 50 uM measured after 15 mins by HPLC analysis; assay type: ADME; conditions: buffer, pH 7.4, 0.25 h
MDA-MB-231 [27] = assay: Antitumor activity against human MDA-MB-231 cells xenografted in BALB/c nude mouse at 20 mg/kg, iv administered every two days for 21 days relative to control; assay type: functional; conditions: MDA-MB-231, 504 h, time 21 day, read-out: TGI
MDA-MB-231 [28] = assay: Induction of cell cycle arrest in human MDA-MB-231 cells assessed as accumulation at G0/G1 phase at 0.8 uM by PI staining based flow cytometry (reference value: 64.6 %); assay type: functional
MDA-MB-231 [29] = assay: Cytotoxicity against CuCl2-treated human MDA-MB-231 cells assessed as inhibition of cell viability incubated for 48 hrs by MTT assay; assay type: functional, cell-based; conditions: MDA-MB-231, 48 h
[30] = Induction of apoptosis in human MCF-10A cells assessed as viable cells at 0.4 uM incubated for 24 hrs by Annexin V-FITC/PI staining based flow cytometry (reference value: 92.5 %); assay type: toxicity, cell-based; conditions: read-out: Activity
[31] = Prodrug conversion in PBS at pH 7.4 containing H2O2 assessed as 4-hydroxybenzyl alcohol release by measuring retention time at 50 uM measured after 15 mins by HPLC analysis; assay type: ADME; conditions: buffer, pH 7.4, 0.25 h
A549 = assay: Cytotoxicity against CuCl2-treated human A549 cells assessed as inhibition of cell viability incubated for 48 hrs by MTT assay; assay type: functional, cell-based; conditions: A549, 48 h

For `CC1(C)OB(c2ccc(C[n+]3cccc4cccc(O)c43)cc2)OC1(C)C.[Br-]`, the Activity (MDA-MB-231 [1]) was 16.4%, the Drug metabolism [2] was “metabolite_detected” and the Activity (MDA-MB-231 [3]) was 71%. For the same compound, the inhibition (MDA-MB-231 [4]) was “Active”, the Activity (MCF-10A [5]) was “Non-toxic” and the viability at 0.8 µM (MDA-MB-231 [6]) was 24.8%. The Activity (MCF-10A [7]) was 2%, the Activity (MDA-MB-231 [8]) was 12.8% and the viability at 24 h, 0.8 µM [9] was 93.7%. For the same compound, the Activity (MCF-10A [10]) was 2.12%, the Activity (MCF-10A [11]) was 0.36% and the Activity (MDA-MB-231 [12]) was 68.1%. For the same compound, the Activity (MDA-MB-231 [13]) was 16.5%, the Activity (MDA-MB-231 [14]) was 13.2% and the Activity (MDA-MB-231 [15]) was 27.9%. The Activity (MDA-MB-231 [16]) was 14.2%, the Activity (MCF-10A [17]) was “Non-toxic” and the Activity (MCF-10A [18]) was 2.18%. For the same compound, the IC50 (OVCAR-3) was 6.63 µM, the Activity (MCF-10A [19]) was 3.77% and the Activity (MDA-MB-231 [20]) was 0.22%. The Activity (MCF-10A [21]) was 3.73%, the Drug metabolism [22] was “metabolite_detected” and the Activity (MDA-MB-231 [23]) was 6.03%. The Activity (MDA-MB-231 [24]) was 7.3%, the Stability [25] was “Unstable” and the Retention_time [26] was 2.8 min. It also gave an inhibition in vivo at 20 mg/kg (MDA-MB-231 [27]) of 63.1%, an Activity (MDA-MB-231 [28]) of 74.2% and an IC50 (MDA-MB-231 [29]) of 0.83 µM. The viability at 24 h, 0.4 µM [30] was 94.9%, the Retention_time [31] was 10.2 min and the IC50 (A549) was 3.48 µM.
